Laboratory results reported in ChEMBL document CHEMBL1122681, “(Acylaryloxy)acetic acid diuretics. 5. [(2-Alkyl- and 2,2-disubstituted-1,3-dioxo-5-indanyl)oxy]acetic acids” (J Med Chem, 1984).

How the values were obtained:
Pan troglodytes [1] = assay: Compound was evaluated for diuretic activity in chimpanzee measured as increase in the number of microequivalents of Na+ /min at 1.25 mg/kg; assay type: functional, Urine
Rattus norvegicus [2] = assay: Compound was evaluated for diuretic activity administered orally in female rats measured as milliequivalents of Na+x 100 / cage at 27 mg/kg; assay type: functional, Urine; conditions: route oral
Rattus norvegicus [3] = assay: Compound was evaluated for diuretic activity administered orally in female rats measured as milliequivalents of Na+x 100 / cage at 81 mg/kg; assay type: functional, Urine; conditions: route oral
Pan troglodytes [4] = assay: Compound was evaluated for diuretic activity in chimpanzee measured as increase in the number of microequivalents of K+ /min at 1.25 mg/kg; assay type: functional, Urine
[5] = volume of urine at 9 mg/kg; assay type: ADME, organism-based; design: dose 9 mg/kg; conditions: in vivo
[6] = volume of urine at 3 mg/kg; assay type: ADME, organism-based; design: dose 3 mg/kg; conditions: in vivo
Rattus norvegicus [7] = assay: Compound was evaluated for diuretic activity administered orally in female rats measured as milliequivalents of K+x 100 / cage at 3 mg/kg; assay type: functional, Urine; conditions: route oral
Canis familiaris [8] = assay: Compound was evaluated for diuretic activity, in female mongrel dogs by measuring amount of Na+ in urine after iv administration of 5 mg/kg (control/compound treatment results) Control = 42; assay type: functional, Canis lupus familiaris
Pan troglodytes [9] = assay: Compound was evaluated for diuretic activity in chimpanzee measured as increase in the number of microequivalents of K+ /min at 5 mg/kg; assay type: functional, Urine
Pan troglodytes [10] = assay: Compound was evaluated for diuretic activity in chimpanzee measured as increase in volume of urine at 0.125 mg/kg; assay type: functional
Pan troglodytes [11] = assay: Compound was evaluated for diuretic activity in chimpanzee measured as increase in the number of microequivalents of Na+ /min at 5 mg/kg; assay type: functional, Urine
Rattus norvegicus [12] = assay: Compound was evaluated for diuretic activity administered orally in female rats measured as milliequivalents of Na+x 100 / cage at 3 mg/kg; assay type: functional, Urine; conditions: route oral
[13] = volume of urine at 81 mg/kg; assay type: ADME, organism-based; design: dose 81 mg/kg; conditions: in vivo
Pan troglodytes [14] = assay: Compound was evaluated for diuretic activity in chimpanzee measured as clearance of […] and urate after peroral administration of 5 mg/kg; assay type: functional, Urine; conditions: route oral
[15] = volume of urine at 27 mg/kg; assay type: ADME, organism-based; design: dose 27 mg/kg; conditions: in vivo
Pan troglodytes [16] = assay: Compound was evaluated for diuretic activity in chimpanzee measured as clearance of […] and urate after intra venous administration of 1.25 mg/kg.; assay type: functional, Urine
Rattus norvegicus [17] = assay: Compound was evaluated for diuretic activity administered orally in female rats measured as milliequivalents of K+x 100 / cage at 27 mg/kg; assay type: functional, Urine; conditions: route oral
Rattus norvegicus [18] = assay: Compound was evaluated for diuretic activity administered orally in female rats measured as milliequivalents of K+x 100 / cage at 81 mg/kg; assay type: functional, Urine; conditions: route oral
Rattus norvegicus [19] = assay: Compound was evaluated for diuretic activity administered orally in female rats measured as milliequivalents of Cl-x 100 / cage at 81 mg/kg; assay type: functional, Urine; conditions: route oral
Rattus norvegicus [20] = assay: Compound was evaluated for diuretic activity administered orally in female rats measured as milliequivalents of Na+x 100 / cage at 9 mg/kg; assay type: functional, Urine; conditions: route oral
Rattus norvegicus [21] = assay: Compound was evaluated for diuretic activity administered orally in female rats measured as milliequivalents of Cl-+x 100 / cage at 27 mg/kg; assay type: functional, Urine; conditions: route oral
Pan troglodytes [22] = assay: Compound was evaluated for diuretic activity in chimpanzee measured as increase in the number of microequivalents of Cl- electrolyte/min at 5 mg/kg; assay type: functional, Urine
Pan troglodytes [23] = assay: Compound was evaluated for diuretic activity in chimpanzee measured as increase in the number of microequivalents of cl- /min at 1.25 mg/kg; assay type: functional, Urine
Pan troglodytes [24] = assay: Compound was evaluated for diuretic activity in chimpanzee measured as increase in volume of urine at 1 mg/kg; assay type: functional
Rattus norvegicus [25] = assay: Compound was evaluated for diuretic activity administered orally in female rats measured as milliequivalents of Cl-x 100 / cage at 9 mg/kg; assay type: functional, Urine; conditions: route oral
Rattus norvegicus [26] = assay: Compound was evaluated for diuretic activity administered orally in female rats measured as milliequivalents of K+x 100 / cage at 9 mg/kg; assay type: functional, Urine; conditions: route oral
Rattus norvegicus [27] = assay: Compound was evaluated for diuretic activity administered orally in female rats measured as milliequivalents of Cl-x 100 / cage at 3 mg/kg; assay type: functional, Urine; conditions: route oral
Canis familiaris [28] = assay: Compound was evaluated for diuretic activity, in female mongrel dogs by measuring amount of K+ in urine after iv administration of 5 mg/kg (control/compound treatment results) Control = 5; assay type: functional, Canis lupus familiaris
Canis familiaris [29] = assay: Compound was evaluated for diuretic activity, in female mongrel dogs by measuring amount of Cl- in urine after iv administration of 5 mg/kg (control/compound treatment results) Control = 8; assay type: functional, Canis lupus familiaris
Canis familiaris [30] = assay: Compound was evaluated for diuretic activity, in female mongrel dogs by measuring volume of urine, after iv administration of 5 mg/kg (control/compound treatment results) Control = 1; assay type: ADME, organism-based, Canis lupus familiaris; design: dose 5 mg/kg, route intravenous; conditions: dog, in vivo
Pan troglodytes [31] = assay: Compound was evaluated for diuretic activity in chimpanzee measured as increase in the number of microequivalents of Na+ /min at 1 mg/kg; assay type: functional, Urine
Pan troglodytes [32] = assay: Compound was evaluated for diuretic activity in chimpanzee measured as increase in the number of microequivalents of Cl- electrolyte/min at 1 mg/kg; assay type: functional, Urine
Canis familiaris [33] = assay: Compound was evaluated for diuretic activity, in female mongrel dogs by measuring volume of urine, after iv administration of 5 mg/kg (control/compound treatment results) Control = 2; assay type: ADME, organism-based, Canis lupus familiaris; design: dose 5 mg/kg, route intravenous; conditions: dog, in vivo
Pan troglodytes [34] = assay: Compound was evaluated for diuretic activity in chimpanzee measured as clearance of […] and urate after intra venous administration of 5 mg/kg.; assay type: functional, Urine
Pan troglodytes [35] = assay: Compound was evaluated for diuretic activity in chimpanzee measured as increase in volume of urine at 5 mg/kg; assay type: functional
Pan troglodytes [36] = assay: Compound was evaluated for diuretic activity in chimpanzee measured as increase in the number of microequivalents of K+ /min at 1 mg/kg; assay type: functional, Urine
Canis familiaris [37] = assay: Compound was evaluated for diuretic activity, in female mongrel dogs by measuring amount of Na+ in urine after iv administration of 5 mg/kg (control/compound treatment results) Control = 59; assay type: functional, Canis lupus familiaris
Pan troglodytes [38] = assay: Compound was evaluated for diuretic activity in chimpanzee measured as increase in the number of microequivalents of Cl- /min at 5 mg/kg; assay type: functional, Urine
Canis familiaris [39] = assay: Compound was evaluated for diuretic activity, in female mongrel dogs by measuring amount of Cl- in urine after iv administration of 5 mg/kg (control/compound treatment results) Control = 5; assay type: functional, Canis lupus familiaris
Canis familiaris [40] = assay: Compound was evaluated for diuretic activity, in female mongrel dogs by measuring amount of K+ in urine after iv administration of 5 mg/kg (control/compound treatment results) Control = 13; assay type: functional, Canis lupus familiaris

SMILES: CCC1(C)C(=O)c2cc(OCC(=O)O)c(Cl)c(Cl)c2C1=O (centres undefined)
- Increase (Pan troglodytes [1]): 187
- Activity (Rattus norvegicus [2]): 101
- Activity (Rattus norvegicus [3]): 164
- Increase (Pan troglodytes [4]): 41
- Urine volume [5]: 29 mL
- Urine volume [6]: 30 mL
- Activity (Rattus norvegicus [7]): 46
- Activity (Canis familiaris [8]): 247 u equiv min-1
- Increase (Pan troglodytes [9]): 30
- Increase in volume (Pan troglodytes [10]): 1.4 mL/min
- Increase (Pan troglodytes [11]): 217
- Activity (Rattus norvegicus [12]): 50
- Urine volume [13]: 31 mL
- Delta C urate / delta C insulin (Pan troglodytes [14]): 0.007
- Urine volume [15]: 27 mL
- Delta C urate / delta C insulin (Pan troglodytes [16]): 0.43
- Activity (Rattus norvegicus [17]): 43
- Activity (Rattus norvegicus [18]): 89
- Activity (Rattus norvegicus [19]): 250
- Activity (Rattus norvegicus [20]): 80
- Activity (Rattus norvegicus [21]): 130
- Increase (Pan troglodytes [22]): 226
- Increase (Pan troglodytes [23]): 267
- Increase in volume (Pan troglodytes [24]): 2 mL/min
- Activity (Rattus norvegicus [25]): 97
- Activity (Rattus norvegicus [26]): 35
- Activity (Rattus norvegicus [27]): 64
- Activity (Canis familiaris [28]): 7 u equiv min-1
- Activity (Canis familiaris [29]): 179 u equiv min-1
- Urine volume (Canis familiaris [30]): 2 mL/min

SMILES: Cc1c(OCc2nn[nH]n2)cc2c(c1Cl)C(=O)C1(CCCC1)C2=O
- Increase (Pan troglodytes [31]): 119
- Increase (Pan troglodytes [32]): 172
- Increase (Pan troglodytes [9]): 2
- Urine volume (Canis familiaris [33]): 3 mL/min
- Delta C urate / delta C insulin (Pan troglodytes [34]): 0.128
- Increase (Pan troglodytes [11]): 5
- Increase in volume (Pan troglodytes [35]): 0 mL/min
- Increase (Pan troglodytes [36]): 55
- Delta C urate / delta C insulin (Pan troglodytes [14]): 0.026
- Activity (Canis familiaris [37]): 193 u equiv min-1
- Increase (Pan troglodytes [38]): 36
- Activity (Canis familiaris [39]): 11 u equiv min-1
- Increase in volume (Pan troglodytes [24]): 0.6 mL/min
- Activity (Canis familiaris [40]): 27 u equiv min-1
